From patent publication US20240287351A1, “ENGINEERED MULTIFUNCTIONAL PARTICLES AND THIN DURABLE COATINGS COMPRISING CROSSLINKED SILANE POLYMERS CONTAINING UREA” (Bar-Ilan University, priority 2020, published 2024)

Tested on: microorganisms
Experiment: Antimicrobial activity after organic materials and repetitive microbial loading cycles
Conditions: after exposure to organic materials and repetitive microbial loading cycles

[Na+].[O-]Cl [bleach, sodium hypochlorite]
retention of antimicrobial activity: losing its biocidal activity rapidly
